Laboratory results as given in patent US11691947B2, “Isoindoline compositions and methods for treating neurodegenerative disease” (priority 2014, dated 2023).
“Also recorded” adds a separate entry of the source.

What was measured:
[1] = system: caspase-3; conditions: cited from earlier work; for caspase-3 activation: tumor cells and neurons, WO2013/029060 FIGS. 10A and 10B
[2] = system: neuronal cultures; assay: Nuclear intensity/morphology in neuronal cultures treated with sigma compounds; format: cell-based; conditions: 24 hours treatment, compared to vehicle
Method: Neuronal cultures are treated with various concentrations of sigma compounds for 24 hours and nuclear intensity compared to vehicle is measured. […] Isoindoline test compounds of the present disclosure are analyzed in this assay to help determine neuronal phenotype, results are shown in Table 2.

[3] = system: MDA-MB-435 or MDA-MB231 or SKOV-3 cells; assay: MTS tumor cell viability assay (agonist/antagonist activity of sigma-2 ligands); format: cell-based
Method: The cytotoxicity of test compounds is determined using the CellTiter96 Aqueous One Solution Assay (Promega, Madison, Wis.). Briefly, MDA-MB-435 or MDA-MB231 or SKOV-3 cells were seeded in a 96-well plate at a density of 2000 cells/well on the day prior to treatment with sigma-2 receptor selective ligands. After a 24 hour treatment, the CellTiter 96 AQueous One Solution Reagent is added to each well, and the plate incubated for 2 hours at 37° C. The plate is read at 490 nm in a Victor3 plate reader (PerkinElmer Life and Analytical Sciences, Shelton, Conn.). The EC^50 value, defined as the concentration of the sigma ligand required to inhibit cell viability by 50% relative to untreated cells, is determined from the dose response curve for each cell line. Siramesine is accepted as an agonist.

[4] = system: Abeta 42 oligomer-induced synapse loss in primary neurons; assay: Abeta oligomer-induced synapse loss assay; format: cell-based
Method: The number of synapses can also be quantified in this assay by immunofluorochemistry.
Primary hippocampal neuronal culture is established as in the membrane trafficking assay above. […] Pretreatment with test compounds for 1 hr and addition of Abeta oligomers or no oligomer (vehicle alone) is followed by incubation for an additional 23 hrs.
The plates are then washed 3× with PBS for 5 min each. The plates are blocked at RT for 1 hr in 5% goat serum and 0.5% Triton X-100 in PBS. Primary antibodies (anti-MAP 2 polyclonal, Millipore #AB5622 and anti-Beta Amyloid 6E10 monoclonal, Covance #SIG-39300, at 1 microgram/ml, and rabbit polyclonal anti-synaptophysin, Anaspec, at 0.2 microgram/ml) were diluted 1:1000 in 5% goat serum with PBS. Primary antibodies are incubated overnight at 4° C. The plates are then washed 3× with PBS for 5 min each. Secondary antibodies (Alex Flor 488 polyclonal, Invitrogen #A11008 and Alexa Flor 647 monoclonal, Invitrogen #A21235) are diluted 1:1000 in 5% goat serum with PBS. Secondary antibodies are incubated at RT for 1 hr. The plates are washed once with PBS. DAPI (4′,6-diamidino-2-phenylindole, Invitrogen) is then applied at 0.03 ug/ul and incubated at RT for 5 min, then washed with PBS.

SMILES | caspase-3 activation [1] | nuclear morphology / nuclear intensity in neurons [2] | Action [3] | block of caspase-3 activation by agonist SV-119 in neurons ([1]; neurons, WO2013/029060 FIG. 10B) | inhibition of caspase-3 activation in tumor cells ([1]; tumor cells, WO2013/029060 FIG. 10A) | elimination of Abeta 42 oligomer-induced synapse loss [4] | recovery of synapse loss [4]
COc1ccc(C)cc1NC(=O)OC1C[C@H]2CCC[C@@H](C1)N2CCCCCCN (stereo partly drawn) [SV-119] | activate caspase-3 in tumor cells and neurons | cause significant abnormal nuclear morphology in neurons | Full agonist |  |  |  | 
COc1cc2c(cc1OC)CN(CCCCNC(=O)c1cc(C)ccc1OC)CC2 [RHM-1, N-[4-(3,4-dihydro-6,7-dimethoxyisoquinolin-2(1H)-yl)butyl]-2-methoxy-5-methylbenzamide] | do not induce caspase-3 activity | do not decrease nuclear intensity | Antagonist | not able to block activation | inhibits the activation in tumor cells |  | 
Fc1ccc(-n2cc(CCCCN3CCC4(CC3)OCc3ccccc34)c3ccccc32)cc1 [Siramesine] | activate caspase-3 in tumor cells and neurons; also recorded: induces caspase-3 activity | cause significant abnormal nuclear morphology in neurons | Full agonist |  |  |  | 
O=C(CCCN1CCC(O)(c2ccc(Cl)cc2)CC1)c1ccc(F)cc1 [haloperidol] |  |  |  |  |  | completely eliminated synapse loss | 
CCCN(CCC)CCc1ccc(OC)c(OCCc2ccccc2)c1 [NE-100] |  |  |  |  |  | completely eliminated synapse loss | 
CCC(Oc1ccc(Cl)cc1)C(=O)OC1CC2CCC(C1)N2C (stereo not drawn) [SM-21] |  |  |  |  |  | only weakly active in eliminating synapse loss | 20%
